Results as given in US20140357512A1, “HISTONE DEACETYLASE (HDAC) BIOMARKERS IN MULTIPLE MYELOMA” (priority 2013, published 2014).

Tested on: human myeloma cell line MM.1S
Assay: Biological pathway analysis of SILAC biomarker peptides against pathway database (broadinstitute gsea)
Protocol: Once biomarker peptides are identified for a specific drug by the SILAC method, the biomarker peptides may be compared to peptides/proteins in a biological pathway database in order to identify major biological pathways or functions implicated by the drug's action. A preferred pathway analysis website is at www dot broadinstitute dot org/gsea/index dot jsp.
This example describes the biological pathway analysis that was performed on each of Compound A, Compound B, and Tubastatin A.
Once biomarker peptides were identified for a specific drug (either Compound A, Compound B, or Tubastatin A) by the SILAC method in Example 1, the biomarker peptides were compared to peptides/proteins in the biological pathway database at www dot broadinstitute dot org/gsea/index dot jsp in order to identify major biological pathways or functions implicated by the drug's action.

O=C(NO)c1cnc(NC2(c3cccc(F)c3)CCCCC2)nc1 [Compound B, 2-((1-(3-fluorophenyl)cyclohexyl)amino)-N-hydroxypyrimidine-5-carboxamide]
Observed: number of genes in pathway REACTOME_PACKAGING_OF_TELOMERE_ENDS (Pathway_size 48): 15 | Ratio observed/pathway size, REACTOME_PACKAGING_OF_TELOMERE_ENDS (Pathway_size 48): 0.3125 | Observed: number of genes in pathway REACTOME_RNA_POL_I_PROMOTER_OPENING (Pathway_size 61): 15 | Ratio observed/pathway size, REACTOME_RNA_POL_I_PROMOTER_OPENING (Pathway_size 61): 0.2459 | Observed: number of genes in pathway REACTOME_DEPOSITION_OF_NEW_CENPA_CONTAINING_NUCLEOSOMES_AT_THE_CENTROMERE (Pathway_size 64): 15 | Ratio observed/pathway size, REACTOME_DEPOSITION_OF_NEW_CENPA_CONTAINING_NUCLEOSOMES_AT_THE_CENTROMERE (Pathway_size 64): 0.2344 | Observed: number of genes in pathway REACTOME_MEIOTIC_SYNAPSIS (Pathway_size 71): 16 | Ratio observed/pathway size, REACTOME_MEIOTIC_SYNAPSIS (Pathway_size 71): 0.2254 | Observed: number of genes in pathway MORF_PPP2CA (Pathway_size 127): 18 | Ratio observed/pathway size, MORF_PPP2CA (Pathway_size 127): 0.1417 | Observed: number of genes in pathway MORF_NME2 (Pathway_size 154): 19 | Ratio observed/pathway size, MORF_NME2 (Pathway_size 154): 0.1234 | Observed: number of genes in pathway MORF_NPM1 (Pathway_size 162): 20 | Ratio observed/pathway size, MORF_NPM1 (Pathway_size 162): 0.1235 | Observed: number of genes in pathway MORF_CTBP1 (Pathway_size 168): 24 | Ratio observed/pathway size, MORF_CTBP1 (Pathway_size 168): 0.1429 | Observed: number of genes in pathway MORF_G22P1 (Pathway_size 171): 23 | Ratio observed/pathway size, MORF_G22P1 (Pathway_size 171): 0.1345 | Observed: number of genes in pathway MORF_RAD21 (Pathway_size 182): 20 | Ratio observed/pathway size, MORF_RAD21 (Pathway_size 182): 0.1099 | Observed: number of genes in pathway PENG_LEUCINE_DEPRIVATION_DN (Pathway_size 187): 21 | Ratio observed/pathway size, PENG_LEUCINE_DEPRIVATION_DN (Pathway_size 187): 0.1123 | Observed: number of genes in pathway MORF_DAP3 (Pathway_size 193): 21 | Ratio observed/pathway size, MORF_DAP3 (Pathway_size 193): 0.1088 | Observed: number of genes in pathway MORF_ANP32B (Pathway_size 197): 27 | Ratio observed/pathway size, MORF_ANP32B (Pathway_size 197): 0.1371 | Observed: number of genes in pathway MORF_SKP1A (Pathway_size 202): 22 | Ratio observed/pathway size, MORF_SKP1A (Pathway_size 202): 0.1089 | Observed: number of genes in pathway MORF_AATF (Pathway_size 205): 22 | Ratio observed/pathway size, MORF_AATF (Pathway_size 205): 0.1073 | Observed: number of genes in pathway MORF_ACP1 (Pathway_size 210): 22 | Ratio observed/pathway size, MORF_ACP1 (Pathway_size 210): 0.1048 | Observed: number of genes in pathway MORF_XRCC5 (Pathway_size 234): 26 | Ratio observed/pathway size, MORF_XRCC5 (Pathway_size 234): 0.1111 | Observed: number of genes in pathway MORF_UBE2I (Pathway_size 238): 31 | Ratio observed/pathway size, MORF_UBE2I (Pathway_size 238): 0.1303 | Observed: number of genes in pathway MORF_EIF3S2 (Pathway_size 244): 25 | Ratio observed/pathway size, MORF_EIF3S2 (Pathway_size 244): 0.1025 | Observed: number of genes in pathway MORF_HDAC1 (Pathway_size 254): 30 | Ratio observed/pathway size, MORF_HDAC1 (Pathway_size 254): 0.1181 | Observed: number of genes in pathway MORF_DEK (Pathway_size 262): 29 | Ratio observed/pathway size, MORF_DEK (Pathway_size 262): 0.1107 | Observed: number of genes in pathway MORF_RAN (Pathway_size 268): 33 | Ratio observed/pathway size, MORF_RAN (Pathway_size 268): 0.1231 | Observed: number of genes in pathway MORF_BUB3 (Pathway_size 276): 27 | Ratio observed/pathway size, MORF_BUB3 (Pathway_size 276): 0.09783 | Observed: number of genes in pathway MORF_SOD1 (Pathway_size 277): 23 | Ratio observed/pathway size, MORF_SOD1 (Pathway_size 277): 0.08303 | Observed: number of genes in pathway MORF_CSNK2B (Pathway_size 287): 27 | Ratio observed/pathway size, MORF_CSNK2B (Pathway_size 287): 0.09408 | Observed: number of genes in pathway MORF_GNB1 (Pathway_size 303): 30 | Ratio observed/pathway size, MORF_GNB1 (Pathway_size 303): 0.09901 | Observed: number of genes in pathway PENG_GLUTAMINE_DEPRIVATION_DN (Pathway_size 337): 25 | Ratio observed/pathway size, PENG_GLUTAMINE_DEPRIVATION_DN (Pathway_size 337): 0.07418 | Observed: number of genes in pathway MORF_RAD23A (Pathway_size 345): 34 | Ratio observed/pathway size, MORF_RAD23A (Pathway_size 345): 0.09855 | Observed: number of genes in pathway HSIAO_HOUSEKEEPING_GENES (Pathway_size 389): 36 | Ratio observed/pathway size, HSIAO_HOUSEKEEPING_GENES (Pathway_size 389): 0.09255 | Observed: number of genes in pathway REACTOME_CELL_CYCLE (Pathway_size 412): 29 | Ratio observed/pathway size, REACTOME_CELL_CYCLE (Pathway_size 412): 0.07039 | Observed: number of genes in pathway CASORELLI_ACUTE_PROMYELOCYTIC_LEUKEMIA_DN (Pathway_size 662): 31 | Ratio observed/pathway size, CASORELLI_ACUTE_PROMYELOCYTIC_LEUKEMIA_DN (Pathway_size 662): 0.04683 | Observed: number of genes in pathway KIM_BIPOLAR_DISORDER_OLIGODENDROCYTE_DENSITY_CORR_UP (Pathway_size 681): 31 | Ratio observed/pathway size, KIM_BIPOLAR_DISORDER_OLIGODENDROCYTE_DENSITY_CORR_UP (Pathway_size 681): 0.04552 | Observed: number of genes in pathway BENPORATH_MYC_MAX_TARGETS (Pathway_size 775): 35 | Ratio observed/pathway size, BENPORATH_MYC_MAX_TARGETS (Pathway_size 775): 0.04516 | Observed: number of genes in pathway PUJANA_CHEK2_PCC_NETWORK (Pathway_size 778): 39 | Ratio observed/pathway size, PUJANA_CHEK2_PCC_NETWORK (Pathway_size 778): 0.05013 | Observed: number of genes in pathway GRADE_COLON_CANCER_UP (Pathway_size 870): 40 | Ratio observed/pathway size, GRADE_COLON_CANCER_UP (Pathway_size 870): 0.04598 | Observed: number of genes in pathway MACROMOLECULAR_COMPLEX (Pathway_size 945): 34 | Ratio observed/pathway size, MACROMOLECULAR_COMPLEX (Pathway_size 945): 0.03598 | Observed: number of genes in pathway LOPEZ_MBD_TARGETS (Pathway_size 957): 37 | Ratio observed/pathway size, LOPEZ_MBD_TARGETS (Pathway_size 957): 0.03866 | Observed: number of genes in pathway DANG_BOUND_BY_MYC (Pathway_size 1102): 46 | Ratio observed/pathway size, DANG_BOUND_BY_MYC (Pathway_size 1102): 0.04174 | Observed: number of genes in pathway INTRACELLULAR_ORGANELLE_PART (Pathway_size 1192): 47 | Ratio observed/pathway size, INTRACELLULAR_ORGANELLE_PART (Pathway_size 1192): 0.03943 | Observed: number of genes in pathway ORGANELLE_PART (Pathway_size 1197): 47 | Ratio observed/pathway size, ORGANELLE_PART (Pathway_size 1197): 0.03927 | Observed: number of genes in pathway BLALOCK_ALZHEIMERS_DISEASE_DN (Pathway_size 1237): 49 | Ratio observed/pathway size, BLALOCK_ALZHEIMERS_DISEASE_DN (Pathway_size 1237): 0.03961 | Observed: number of genes in pathway DODD_NASOPHARYNGEAL_CARCINOMA_DN (Pathway_size 1368): 39 | Ratio observed/pathway size, DODD_NASOPHARYNGEAL_CARCINOMA_DN (Pathway_size 1368): 0.02851 | Observed: number of genes in pathway DIAZ_CHRONIC_MEYLOGENOUS_LEUKEMIA_UP (Pathway_size 1382): 58 | Ratio observed/pathway size, DIAZ_CHRONIC_MEYLOGENOUS_LEUKEMIA_UP (Pathway_size 1382): 0.04197 | Observed: number of genes in pathway NUCLEUS (Pathway_size 1428): 40 | Ratio observed/pathway size, NUCLEUS (Pathway_size 1428): 0.02801 | Observed: number of genes in pathway PUJANA_ATM_PCC_NETWORK (Pathway_size 1440): 41 | Ratio observed/pathway size, PUJANA_ATM_PCC_NETWORK (Pathway_size 1440): 0.02847 | Observed: number of genes in pathway PUJANA_BRCA1_PCC_NETWORK (Pathway_size 1651): 68 | Ratio observed/pathway size, PUJANA_BRCA1_PCC_NETWORK (Pathway_size 1651): 0.04119 | Observed: number of genes in pathway GRAESSMANN_APOPTOSIS_BY_DOXORUBICIN_DN (Pathway_size 1781): 44 | Ratio observed/pathway size, […]_APOPTOSIS_BY_DOXORUBICIN_DN (Pathway_size 1781): 0.02471 | Observed: number of genes in pathway PILON_KLF1_TARGETS_DN (Pathway_size 1972): 45 | Ratio observed/pathway size, PILON_KLF1_TARGETS_DN (Pathway_size 1972): 0.02282 | Observed: number of genes in pathway CYTOPLASM (Pathway_size 2130): 50 | Ratio observed/pathway size, CYTOPLASM (Pathway_size 2130): 0.02347 | Observed: number of genes in pathway GGGCGGR_V$SP1_Q6 (Pathway_size 2939): 53 | Ratio observed/pathway size, GGGCGGR_V$SP1_Q6 (Pathway_size 2939): 0.01803
